Measurements from ChEMBL document CHEMBL5579851, “Synthesis and antifungal evaluation of novel triazole derivatives bearing a pyrazole-methoxyl moiety” (Eur J Med Chem, 2024).
Values after ≈ are worked out from the molar mass of the structure shown. Active and inactive are the calls of the source. No cut-off for these calls is given here.

Tests used:
[1] = system: Saccharomyces cerevisiae; experiment: Antifungal activity against recombinant Saccharomyces cerevisiae Y2374 overexpressing CgErg11 assessed as inhibition of fungal growth incubated for 48 hrs by CLSI based broth microdilution assay; type: functional
[2] = system: Saccharomyces cerevisiae; experiment: Antifungal activity against recombinant Saccharomyces cerevisiae Y525 overexpressing CaMdr1 assessed as inhibition of fungal growth incubated for 48 hrs by CLSI based broth microdilution assay; type: functional
[3] = system: Saccharomyces cerevisiae; experiment: Antifungal activity against recombinant Saccharomyces cerevisiae Y2766 overexpressing CauCdr1 assessed as inhibition of fungal growth incubated for 48 hrs by CLSI based broth microdilution assay; type: functional
[4] = system: Candida tropicalis; experiment: Potency index, ratio of fluconazole MIC to test compound MIC for antifungal activity against Candida tropicalis 8915 assessed as inhibition of fungal growth incubated for 48 hrs by CLSI based broth microdilution assay; type: functional
[5] = target: T1, Lanosterol 14-alpha demethylase (Candida albicans (strain SC5314 / ATCC MYA-2876) (Yeast), UniProt P10613); experiment: Inhibition of CYP51 in Candida albicans SC5314 assessed as eburicol level at 0.0625 ug/ml after 8 hrs by GC-MS analysis relative to control; set-up: scale not given: the % may be the effect or the level left; details: at 0.0625 µg/mL
T1 sequence (P10613 whole entry): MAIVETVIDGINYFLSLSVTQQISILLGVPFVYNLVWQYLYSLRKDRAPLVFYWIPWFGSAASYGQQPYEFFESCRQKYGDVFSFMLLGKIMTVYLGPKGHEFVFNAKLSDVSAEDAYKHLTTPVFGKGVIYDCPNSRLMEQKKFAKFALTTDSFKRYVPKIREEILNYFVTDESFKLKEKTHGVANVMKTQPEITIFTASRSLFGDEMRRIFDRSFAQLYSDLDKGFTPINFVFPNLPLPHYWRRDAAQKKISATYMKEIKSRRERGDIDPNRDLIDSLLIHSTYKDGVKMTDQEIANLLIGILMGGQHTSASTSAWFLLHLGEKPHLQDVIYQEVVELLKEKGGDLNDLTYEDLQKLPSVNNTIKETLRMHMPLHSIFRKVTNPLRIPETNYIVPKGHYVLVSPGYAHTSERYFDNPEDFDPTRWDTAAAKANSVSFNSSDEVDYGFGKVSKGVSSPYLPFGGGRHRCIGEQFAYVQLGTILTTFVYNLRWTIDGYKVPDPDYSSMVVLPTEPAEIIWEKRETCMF

[6] = system: Candida albicans; experiment: Antifungal activity against Candida albicans SC5314 assessed as inhibition of hyphae formation at 0.625 ug/ml after 3 hrs by inverted microscopic analysis relative to control; type: functional
[7] = system: [Candida] auris; experiment: Antifungal activity against fluconazole-resistant Candida auris 891 assessed as inhibition of fungal growth incubated for 48 hrs by CLSI based broth microdilution assay; type: functional; details: Candidozyma auris
[8] = target: T1, Lanosterol 14-alpha demethylase; experiment: Inhibition of CYP51 in Candida albicans SC5314 assessed as lanosterol level at 0.0625 ug/ml after 8 hrs by GC-MS analysis (reference value: 5.9 %); set-up: scale not given: the % may be the effect or the level left; details: at 0.0625 µg/mL
[9] = system: Candida albicans; experiment: Antifungal activity against fluconazole-resistant Candida albicans 901 assessed as inhibition of fungal growth incubated for 48 hrs by CLSI based broth microdilution assay; type: functional
[10] = system: [Candida] auris; experiment: Antifungal activity against fluconazole-resistant Candida auris 919 assessed as inhibition of fungal growth incubated for 48 hrs by CLSI based broth microdilution assay; type: functional; details: Candidozyma auris
[11] = system: Saccharomyces cerevisiae; experiment: Antifungal activity against recombinant Saccharomyces cerevisiae Y2459 overexpressing CaErg11/CaCpr assessed as inhibition of fungal growth incubated for 48 hrs by CLSI based broth microdilution assay; type: functional
[12] = system: Candida parapsilosis; experiment: Antifungal activity against Candida parapsilosis 22019 assessed as inhibition of fungal growth at 0.125 ug/ml measured up to 48 hrs by TECAN plate reader analysis; type: functional, organism-based; details: dose 0.125 µg/ml

Q: Which results are given for `C[C@@H](OCc1ccn(Cc2ccc(Cl)cc2)n1)[C@](O)(Cn1cncn1)c1ccc(F)cc1F`?
A: MIC [1]: 0.008 µg/mL; MIC [2]: 0.125 µg/mL; MIC [3]: 2 µg/mL; Ratio [4]: 256; Activity [5]: ~ 20%; inhibition at 0.625 µg/mL [6]: 100%; MIC [7]: 8 µg/mL (≈ 16.9 µM); Activity [8]: > 25%; MIC [9]: 16 µg/mL (≈ 33.8 µM); MIC [10]: 8 µg/mL (≈ 16.9 µM); MIC [11]: 0.008 µg/mL; inhibition [12]: Active
